Active and inactive are the calls of the source.
Experiments:
[1] = viability of uninfected HEp-2 cells – cell-based, HTS, cytotoxicity control for RSV inhibitor project, dose response (AID 2410); type: functional; settings: human respiratory syncytial virus
Vero = assay: cells; type: functional, cell-based; settings: Chlorocebus sabaeus
[2] = fluconazole-exposed Candida albicans growth modulators – fluorescence, retest, confirmation (AID 2467); type: functional, cell-based
[3] = NIH-3T3 fibroblast cytotoxicity, dose response, cytotoxicity control, cell-based, fluorescence, Alamar Blue, secondary assay (AID 2327); type: functional;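 note: NIH-3T3 mouse fibroblasts cultured with fluconazole at 8 µg/mL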
[4] = target: Lysosomal acid glucosylceramidase (Homo sapiens, UniProt P04062); assay: Dose response cell-based high throughput screening assay to identify enhancers of beta-glucosidase activity. [Related pubchem assays: 784 ]; type: functional
[5] = target: T1, Calpain-2 catalytic subunit (Sus scrofa, UniProt P43367); assay: m-calpain protease blockers, concentration series – biochemical, fluorogenic peptide substrate, dose response (AID 1420); type: functional
T1 sequence (P43367 whole entry): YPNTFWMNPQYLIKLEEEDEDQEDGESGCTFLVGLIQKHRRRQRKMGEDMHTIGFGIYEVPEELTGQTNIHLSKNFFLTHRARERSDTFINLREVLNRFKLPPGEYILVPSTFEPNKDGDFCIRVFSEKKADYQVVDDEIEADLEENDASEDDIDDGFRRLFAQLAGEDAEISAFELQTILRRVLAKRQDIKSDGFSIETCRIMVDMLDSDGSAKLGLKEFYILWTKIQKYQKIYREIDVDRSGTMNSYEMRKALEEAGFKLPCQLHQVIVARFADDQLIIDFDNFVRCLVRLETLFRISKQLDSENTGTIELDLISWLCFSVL

[6] = target: Lytic switch protein BZLF1 (Epstein-Barr virus (strain B95-8) (HHV-4) (Human herpesvirus 4), UniProt P03206); assay: inhibition of BZLF1 ZTA DNA binding – biochemical, fluorescence polarization, Epstein-Barr virus, 1536-well, counter-screen for EBNA-1 inhibitor project, dose response (AID 2377); set-up: species or system human gammaherpesvirus 4;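 note: fluorescence polarization of Cy5-labelled ZRE DNA probe bound by purified Zta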
Chain of Lytic switch protein BZLF1 (P03206 whole entry): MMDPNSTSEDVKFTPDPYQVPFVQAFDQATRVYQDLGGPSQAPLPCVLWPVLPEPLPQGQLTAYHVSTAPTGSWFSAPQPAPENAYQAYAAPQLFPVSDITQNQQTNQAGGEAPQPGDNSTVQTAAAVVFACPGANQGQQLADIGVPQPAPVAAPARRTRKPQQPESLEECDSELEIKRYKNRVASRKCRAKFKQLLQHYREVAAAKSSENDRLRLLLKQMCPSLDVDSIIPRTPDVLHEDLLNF

[7] = target: Epstein-Barr nuclear antigen 1 (Epstein-Barr virus (strain B95-8) (HHV-4) (Human herpesvirus 4), UniProt P03211); assay: inhibition of EBV nuclear antigen 1 DNA binding – biochemical, fluorescence polarization, 1536-well, dose response (AID 2381); set-up: species or system human gammaherpesvirus 4;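 note: fluorescence polarization of a Cy5 DNA probe bound by EBNA-1 protein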
Chain of Epstein-Barr nuclear antigen 1 (P03211 whole entry): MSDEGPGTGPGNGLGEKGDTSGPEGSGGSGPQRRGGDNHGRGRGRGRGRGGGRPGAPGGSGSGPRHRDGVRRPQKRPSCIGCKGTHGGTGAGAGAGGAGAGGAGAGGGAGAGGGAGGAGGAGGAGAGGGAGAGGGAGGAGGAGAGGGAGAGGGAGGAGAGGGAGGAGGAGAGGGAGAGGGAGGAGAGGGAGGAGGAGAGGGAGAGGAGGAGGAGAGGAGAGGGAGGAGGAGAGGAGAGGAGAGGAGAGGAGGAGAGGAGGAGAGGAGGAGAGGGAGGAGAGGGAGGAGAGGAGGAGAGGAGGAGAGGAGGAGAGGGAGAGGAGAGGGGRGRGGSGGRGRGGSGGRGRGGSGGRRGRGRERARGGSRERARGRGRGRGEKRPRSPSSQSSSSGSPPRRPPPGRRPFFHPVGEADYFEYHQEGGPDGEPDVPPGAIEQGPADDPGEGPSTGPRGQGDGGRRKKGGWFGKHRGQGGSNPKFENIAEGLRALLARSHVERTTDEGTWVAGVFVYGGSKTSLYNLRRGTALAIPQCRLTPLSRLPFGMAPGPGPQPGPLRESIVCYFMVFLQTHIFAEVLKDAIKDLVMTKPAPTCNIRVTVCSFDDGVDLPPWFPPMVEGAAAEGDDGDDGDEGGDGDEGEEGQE

Mucolipin-3 = Mucolipin-3 (Homo sapiens, UniProt Q8TDD5); assay: Dose response cell-based high-throughput screening assay for agonists of the transient receptor potential channel ML3 (TRPML3). [Related pubchem assays: 1526, 1424, 1448 ]; type: functional
Chain of Mucolipin-3 (Q8TDD5 whole entry): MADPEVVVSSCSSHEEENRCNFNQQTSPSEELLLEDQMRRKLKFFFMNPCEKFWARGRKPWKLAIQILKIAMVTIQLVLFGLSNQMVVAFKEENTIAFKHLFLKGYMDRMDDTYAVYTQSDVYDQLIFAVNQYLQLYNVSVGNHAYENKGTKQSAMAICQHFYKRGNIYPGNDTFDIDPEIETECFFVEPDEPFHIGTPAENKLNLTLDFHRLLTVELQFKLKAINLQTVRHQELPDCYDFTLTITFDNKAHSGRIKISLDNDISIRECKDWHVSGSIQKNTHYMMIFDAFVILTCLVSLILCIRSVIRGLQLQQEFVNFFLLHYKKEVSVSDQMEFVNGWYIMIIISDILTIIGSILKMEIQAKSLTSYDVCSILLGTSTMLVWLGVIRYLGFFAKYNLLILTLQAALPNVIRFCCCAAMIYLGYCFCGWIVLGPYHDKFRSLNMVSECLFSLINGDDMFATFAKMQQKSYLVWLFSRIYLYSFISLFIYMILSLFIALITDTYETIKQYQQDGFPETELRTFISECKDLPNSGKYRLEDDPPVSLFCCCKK

Ion channel NompC = Ion channel NompC (Danio rerio, UniProt Q7T1G6); assay: Fluorescence counterscreen assay for TRPML3 agonists: dose response cell-based high-throughput screening assay to identify agonists of the transient receptor potential channel N1 (TRPN1). [Related pubchem assays: 1526, 1424, 1448 ]; type: functional
[8] = target: Intestinal-type alkaline phosphatase (Homo sapiens, UniProt P09923); assay: Dose Response confirmation of uHTS hits from a small molecule inhibitors of human intestinal alkaline phosphatase via a luminescent assay. [Related pubchem assays (depositor defined):AID2544, AID2574]; type: functional
[9] = target: T2, High affinity choline transporter 1 (Homo sapiens, UniProt Q9GZV3); assay: human choline transporter blockers, potency – cell-based, 5-point CRC, membrane potential dye, dose response (AID 504840); type: functional
T2 sequence (Q9GZV3 whole entry): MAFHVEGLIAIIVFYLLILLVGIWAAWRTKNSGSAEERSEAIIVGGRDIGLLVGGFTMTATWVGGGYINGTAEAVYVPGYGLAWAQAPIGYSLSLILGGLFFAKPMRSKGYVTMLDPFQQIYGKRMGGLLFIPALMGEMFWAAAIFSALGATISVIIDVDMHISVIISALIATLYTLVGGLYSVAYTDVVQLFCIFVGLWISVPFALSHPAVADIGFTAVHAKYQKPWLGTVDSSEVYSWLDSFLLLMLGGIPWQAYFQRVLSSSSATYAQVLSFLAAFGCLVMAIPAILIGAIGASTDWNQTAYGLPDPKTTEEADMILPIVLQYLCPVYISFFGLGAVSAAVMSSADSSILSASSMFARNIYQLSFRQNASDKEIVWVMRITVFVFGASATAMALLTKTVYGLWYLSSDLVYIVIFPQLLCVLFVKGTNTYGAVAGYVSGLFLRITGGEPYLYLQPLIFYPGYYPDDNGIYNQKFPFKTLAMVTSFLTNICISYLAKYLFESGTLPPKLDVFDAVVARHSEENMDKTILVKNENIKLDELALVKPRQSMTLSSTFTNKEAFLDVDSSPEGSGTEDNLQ

Cysteine protease ATG4B = target: T3, Cysteine protease ATG4B (Homo sapiens, UniProt Q9Y4P1); type: functional;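 note: Fluorescence-based dose-response confirmation assay measuring inhibition of ATG4B activity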
T3 sequence (Q9Y4P1 whole entry): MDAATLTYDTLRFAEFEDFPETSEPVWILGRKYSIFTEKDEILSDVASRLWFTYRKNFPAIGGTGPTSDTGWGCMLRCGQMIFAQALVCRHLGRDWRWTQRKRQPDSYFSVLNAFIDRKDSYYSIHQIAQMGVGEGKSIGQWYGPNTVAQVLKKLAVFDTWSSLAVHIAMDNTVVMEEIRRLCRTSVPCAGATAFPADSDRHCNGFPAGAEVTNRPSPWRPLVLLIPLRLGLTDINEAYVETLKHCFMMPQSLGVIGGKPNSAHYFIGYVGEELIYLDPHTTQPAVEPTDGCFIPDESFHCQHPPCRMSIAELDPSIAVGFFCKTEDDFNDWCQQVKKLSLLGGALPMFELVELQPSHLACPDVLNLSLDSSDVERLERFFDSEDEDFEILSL

Phospholipase A2 = Phospholipase A2 (Homo sapiens, UniProt P04054); type: functional;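 note: confirmatory dose-response counterscreen on phospholipase A2, testing hits that came from an ultra-high-throughput screen for ATG4B inhibitors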
Chain of Phospholipase A2 (P04054 whole entry, the tested form may be a part): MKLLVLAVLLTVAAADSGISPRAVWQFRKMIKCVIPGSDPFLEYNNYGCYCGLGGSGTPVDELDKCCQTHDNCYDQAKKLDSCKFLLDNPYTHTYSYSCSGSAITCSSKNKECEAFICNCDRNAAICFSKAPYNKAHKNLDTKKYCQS

[10] = CCR5-tropic HIV-1 fusion blockers – cell-based, CCR5-tropic Env, dose response (AID 2279); type: functional
[11] = target: FAD-linked sulfhydryl oxidase ALR (Homo sapiens, UniProt P55789); assay: ALR-catalysed DTT oxidation blockers – biochemical, H2O2 detection, luminescence, cherry-pick, dose response (AID 493248)
Chain of FAD-linked sulfhydryl oxidase ALR (P55789 whole entry): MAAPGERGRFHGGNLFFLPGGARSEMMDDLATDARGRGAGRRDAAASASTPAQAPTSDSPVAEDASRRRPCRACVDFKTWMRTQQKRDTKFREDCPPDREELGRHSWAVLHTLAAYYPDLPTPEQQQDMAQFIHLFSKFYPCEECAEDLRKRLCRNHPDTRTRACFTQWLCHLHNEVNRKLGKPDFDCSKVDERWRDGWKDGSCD

Estrogen receptor = Estrogen receptor (Homo sapiens, UniProt P03372);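 note: potency for inhibiting coactivator peptide recruitment to the receptor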
[12] = target: T4, Eukaryotic translation initiation factor 2-alpha kinase 3 (Homo sapiens, UniProt Q9NZJ5); assay: Counterscreen assay for PERK inhibitors: Dose response cell-based high throughput screening assay to measure inhibition of PERK at 6 hours. [Related pubchem assays: 1522, 1416 ]; type: functional
T4 sequence (Q9NZJ5 whole entry): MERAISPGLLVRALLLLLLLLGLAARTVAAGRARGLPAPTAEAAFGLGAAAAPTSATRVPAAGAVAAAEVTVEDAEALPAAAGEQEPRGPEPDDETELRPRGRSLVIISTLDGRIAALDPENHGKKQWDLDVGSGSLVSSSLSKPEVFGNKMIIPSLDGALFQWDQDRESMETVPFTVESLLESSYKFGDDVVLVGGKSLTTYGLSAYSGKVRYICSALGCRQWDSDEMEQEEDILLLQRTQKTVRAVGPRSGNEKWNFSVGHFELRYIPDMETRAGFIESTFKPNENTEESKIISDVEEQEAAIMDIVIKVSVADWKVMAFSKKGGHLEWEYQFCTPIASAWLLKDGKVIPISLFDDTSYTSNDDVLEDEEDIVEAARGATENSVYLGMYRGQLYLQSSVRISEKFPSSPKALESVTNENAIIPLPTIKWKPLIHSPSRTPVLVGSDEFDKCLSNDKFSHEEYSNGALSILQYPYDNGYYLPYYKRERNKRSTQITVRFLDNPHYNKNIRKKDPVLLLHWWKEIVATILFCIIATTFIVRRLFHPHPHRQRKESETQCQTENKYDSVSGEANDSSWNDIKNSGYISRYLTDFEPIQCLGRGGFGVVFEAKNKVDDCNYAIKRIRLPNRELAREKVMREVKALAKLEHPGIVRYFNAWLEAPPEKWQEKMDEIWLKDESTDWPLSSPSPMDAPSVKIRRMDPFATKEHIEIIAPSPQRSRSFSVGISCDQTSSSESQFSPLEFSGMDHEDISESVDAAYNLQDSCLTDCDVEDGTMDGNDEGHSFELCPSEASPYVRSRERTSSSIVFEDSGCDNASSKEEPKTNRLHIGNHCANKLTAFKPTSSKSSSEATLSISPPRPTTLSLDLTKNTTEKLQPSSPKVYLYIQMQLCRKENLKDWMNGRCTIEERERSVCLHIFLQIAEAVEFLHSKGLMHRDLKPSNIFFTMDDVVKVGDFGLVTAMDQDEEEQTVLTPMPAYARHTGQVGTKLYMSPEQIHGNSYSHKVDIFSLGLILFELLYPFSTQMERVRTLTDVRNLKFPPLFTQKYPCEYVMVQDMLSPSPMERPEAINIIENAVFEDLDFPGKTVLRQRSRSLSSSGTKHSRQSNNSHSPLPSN

[13] = target: T4, Eukaryotic translation initiation factor 2-alpha kinase 3; assay: Dose response cell-based high-throughput screening assay to measure PERK inhibition. [Related pubchem assays: 1416 ]; type: functional
[14] = target: Scavenger receptor class B member 1 (Mus musculus, UniProt Q61009); assay: mouse SR-BI DiI-HDL uptake blockers – ldlA[mSR-BI] cells, fluorescence, cherry pick, dose response (AID 493194); type: functional, cell-based;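 note: cellular uptake of fluorescent DiI-labeled HDL measured as cell fluorescence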
Chain of Scavenger receptor class B member 1 (Q61009 whole entry): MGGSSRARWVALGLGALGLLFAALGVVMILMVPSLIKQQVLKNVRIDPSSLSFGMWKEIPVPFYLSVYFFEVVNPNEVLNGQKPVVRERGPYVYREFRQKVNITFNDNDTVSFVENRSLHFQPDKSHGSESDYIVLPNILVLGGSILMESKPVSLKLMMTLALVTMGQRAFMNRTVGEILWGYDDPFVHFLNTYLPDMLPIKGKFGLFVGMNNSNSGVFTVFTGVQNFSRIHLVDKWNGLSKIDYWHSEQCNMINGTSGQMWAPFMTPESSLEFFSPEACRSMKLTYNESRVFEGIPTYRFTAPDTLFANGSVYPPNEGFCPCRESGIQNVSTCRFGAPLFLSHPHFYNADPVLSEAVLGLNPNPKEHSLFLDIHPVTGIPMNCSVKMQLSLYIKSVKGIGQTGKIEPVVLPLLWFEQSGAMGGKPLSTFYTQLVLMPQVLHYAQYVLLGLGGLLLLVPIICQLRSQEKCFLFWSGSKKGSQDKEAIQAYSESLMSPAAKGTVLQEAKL

Streptococcus = assay: Luminescence Microorganism-Based Dose Response Follow up to Identify Compounds Cytotoxic to Streptococcus. [Related pubchem assays: 1677 (Project Summary), 1915, 1914, 1902 (Retest at Dose), 1900 (Counter Screen), 1662 (Primary HTS)]; type: functional, organism-based
[15] = target: Glyceraldehyde-3-phosphate dehydrogenase (Homo sapiens, UniProt P04406)
Chain of Glyceraldehyde-3-phosphate dehydrogenase (P04406 whole entry): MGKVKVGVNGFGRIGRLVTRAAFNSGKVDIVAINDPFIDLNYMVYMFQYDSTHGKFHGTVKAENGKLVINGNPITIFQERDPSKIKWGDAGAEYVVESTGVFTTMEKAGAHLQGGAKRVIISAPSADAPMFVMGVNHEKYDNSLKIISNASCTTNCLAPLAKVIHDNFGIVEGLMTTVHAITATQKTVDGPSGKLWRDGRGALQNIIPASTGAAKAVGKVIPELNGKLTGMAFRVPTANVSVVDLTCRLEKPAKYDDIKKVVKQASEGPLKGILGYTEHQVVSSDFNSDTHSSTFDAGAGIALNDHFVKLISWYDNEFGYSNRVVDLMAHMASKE

Oxytocin receptor = Oxytocin receptor (Homo sapiens, UniProt P30559); assay: Fluorescence-based cell-based high throughput dose response assay for agonists of the Oxytocin Receptor (OXTR). [Related pubchem assays: 2435 (Primary screen (OXTR agonists in singlicate)), 434991 (Counterscreen (V1R agonists in triplicate)), 2482 (Summary (OXTR agonists)), 434963 (Confirmation screen (OXTR agonists in triplicate))]; type: functional
Chain of Oxytocin receptor (P30559 whole entry): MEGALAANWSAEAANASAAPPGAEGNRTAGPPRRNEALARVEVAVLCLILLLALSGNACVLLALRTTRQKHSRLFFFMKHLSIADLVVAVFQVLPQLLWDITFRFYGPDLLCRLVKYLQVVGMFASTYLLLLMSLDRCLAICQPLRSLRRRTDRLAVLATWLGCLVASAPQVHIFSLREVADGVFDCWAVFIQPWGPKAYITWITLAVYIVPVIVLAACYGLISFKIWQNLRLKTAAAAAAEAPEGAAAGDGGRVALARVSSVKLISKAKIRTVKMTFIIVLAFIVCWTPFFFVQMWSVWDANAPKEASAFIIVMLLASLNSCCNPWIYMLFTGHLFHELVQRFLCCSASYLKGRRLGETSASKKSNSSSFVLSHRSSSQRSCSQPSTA

Vasopressin V1a receptor = Vasopressin V1a receptor (Homo sapiens, UniProt P37288); assay: Counterscreen for Oxytocin Receptor (OXTR) agonists: Fluorescence-based cell-based high throughput dose response assay to identify agonists of the vasopressin 1 receptor (V1R). [Related pubchem assays: 2435 (Primary screen (OXTR agonists in singlicate)), 434991 (Counterscreen (V1R agonists in triplicate)), 2482 (Summary (OXTR agonists)) …; type: functional
Chain of Vasopressin V1a receptor (P37288 whole entry): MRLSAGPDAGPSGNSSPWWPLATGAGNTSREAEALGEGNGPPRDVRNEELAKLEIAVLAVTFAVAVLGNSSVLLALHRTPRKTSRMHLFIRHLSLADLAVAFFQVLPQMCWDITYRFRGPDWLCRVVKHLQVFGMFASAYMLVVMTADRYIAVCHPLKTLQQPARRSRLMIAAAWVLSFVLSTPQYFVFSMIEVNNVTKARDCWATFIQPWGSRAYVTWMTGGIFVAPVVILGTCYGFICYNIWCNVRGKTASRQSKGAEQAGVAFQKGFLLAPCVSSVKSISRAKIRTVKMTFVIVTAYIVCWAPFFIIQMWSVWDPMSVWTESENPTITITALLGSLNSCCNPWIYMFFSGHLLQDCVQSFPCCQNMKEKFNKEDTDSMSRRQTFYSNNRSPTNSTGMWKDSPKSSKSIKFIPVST

[16] = target: T5, Microphthalmia-associated transcription factor (Homo sapiens, UniProt O75030); assay: reducers of TRPM1 reporter luminescence, concentration series – cell-based, SK-MEL-5, cherry-picked, set 3, MITF inhibitor project, dose response (AID 493073); type: functional;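 note: SK-MEL-5 melanoma cells with luciferase driven by the MITF target TRPM1 promoter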
T5 sequence (O75030 whole entry): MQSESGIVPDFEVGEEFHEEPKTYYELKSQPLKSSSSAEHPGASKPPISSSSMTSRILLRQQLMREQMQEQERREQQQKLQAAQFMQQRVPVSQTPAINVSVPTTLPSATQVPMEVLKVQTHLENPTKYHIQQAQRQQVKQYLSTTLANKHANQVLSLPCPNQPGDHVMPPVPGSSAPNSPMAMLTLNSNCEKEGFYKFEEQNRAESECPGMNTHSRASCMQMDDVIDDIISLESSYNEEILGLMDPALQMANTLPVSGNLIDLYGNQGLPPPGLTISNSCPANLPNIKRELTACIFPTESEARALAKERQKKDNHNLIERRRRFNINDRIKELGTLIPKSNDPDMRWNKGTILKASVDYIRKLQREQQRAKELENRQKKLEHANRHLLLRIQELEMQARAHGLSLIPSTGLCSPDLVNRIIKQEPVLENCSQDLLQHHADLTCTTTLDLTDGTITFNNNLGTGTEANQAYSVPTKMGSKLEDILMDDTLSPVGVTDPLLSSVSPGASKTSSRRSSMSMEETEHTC

Genome polyprotein = Genome polyprotein (dengue virus type 2, UniProt P29990); assay: flavivirus cap methylation enzyme inhibition – biochemical, confirmation dose response, primary screen (AID 588689); type: functional
Chain of Genome polyprotein (P29990 2492-3391 limits assumed): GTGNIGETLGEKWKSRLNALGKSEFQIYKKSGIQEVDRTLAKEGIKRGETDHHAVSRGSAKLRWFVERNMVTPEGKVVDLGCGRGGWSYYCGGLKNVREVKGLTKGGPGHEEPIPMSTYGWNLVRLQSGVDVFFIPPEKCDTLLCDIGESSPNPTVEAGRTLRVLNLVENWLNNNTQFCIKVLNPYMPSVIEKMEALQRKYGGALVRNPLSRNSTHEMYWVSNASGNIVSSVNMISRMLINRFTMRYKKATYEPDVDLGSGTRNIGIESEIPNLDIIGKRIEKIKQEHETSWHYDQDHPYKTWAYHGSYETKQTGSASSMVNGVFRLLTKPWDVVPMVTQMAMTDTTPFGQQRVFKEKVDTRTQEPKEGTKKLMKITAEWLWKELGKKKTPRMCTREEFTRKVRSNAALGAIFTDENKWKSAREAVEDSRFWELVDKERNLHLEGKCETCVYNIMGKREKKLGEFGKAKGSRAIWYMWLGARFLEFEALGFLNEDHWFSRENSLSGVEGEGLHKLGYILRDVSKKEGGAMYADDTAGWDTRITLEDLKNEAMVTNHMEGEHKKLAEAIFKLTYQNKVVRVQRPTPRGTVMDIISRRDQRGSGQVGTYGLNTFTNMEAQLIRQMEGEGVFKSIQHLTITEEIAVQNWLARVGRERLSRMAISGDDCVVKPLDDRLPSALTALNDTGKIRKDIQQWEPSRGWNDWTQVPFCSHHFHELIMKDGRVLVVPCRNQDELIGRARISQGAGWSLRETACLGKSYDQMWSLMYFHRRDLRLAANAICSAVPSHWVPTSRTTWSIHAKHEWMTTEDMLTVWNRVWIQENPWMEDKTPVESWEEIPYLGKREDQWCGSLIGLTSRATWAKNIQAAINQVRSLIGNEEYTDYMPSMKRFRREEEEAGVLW

[17] = target: Luciferin 4-monooxygenase (Photinus pyralis, UniProt P08659); assay: Counter Screen for Luciferase-based Assay Positives. [Related pubchem assays: 620, 618, 411 ]
Chain of Luciferin 4-monooxygenase (P08659 whole entry): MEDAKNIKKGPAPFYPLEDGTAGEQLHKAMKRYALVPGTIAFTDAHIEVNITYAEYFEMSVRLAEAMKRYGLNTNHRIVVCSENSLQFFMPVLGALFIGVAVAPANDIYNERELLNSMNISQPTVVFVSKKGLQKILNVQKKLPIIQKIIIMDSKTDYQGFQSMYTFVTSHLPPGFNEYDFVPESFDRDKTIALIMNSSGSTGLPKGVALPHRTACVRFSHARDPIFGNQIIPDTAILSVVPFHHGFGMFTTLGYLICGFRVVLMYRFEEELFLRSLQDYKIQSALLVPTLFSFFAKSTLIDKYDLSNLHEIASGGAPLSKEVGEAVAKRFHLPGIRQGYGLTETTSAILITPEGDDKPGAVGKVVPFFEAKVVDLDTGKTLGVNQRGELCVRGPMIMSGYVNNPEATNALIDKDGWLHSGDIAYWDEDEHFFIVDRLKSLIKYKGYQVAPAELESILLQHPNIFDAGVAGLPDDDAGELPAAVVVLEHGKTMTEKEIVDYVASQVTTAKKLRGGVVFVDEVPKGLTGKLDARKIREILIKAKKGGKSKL

Cc1ccc(CSCC(=O)Nc2ccccc2C(=O)O)cc1
IC50 (cells): 9.39 µM (active)
CC50 [1]: 21.9 µM (active)
IC50 (Vero): 12.2 µM (active)

O=C(c1ccc(C(=O)N2CCCc3ccccc32)s1)N1CCCc2ccccc21
IC50 (cells): > 50 µM (active)
CC50 [1]: > 50 µM (active)
EC50 [2]: 2.45 µM (active)
EC50 [3]: 20.7 µM (inconclusive)

COCc1cc(C)nc(NC2CCCCC2)c1C#N
EC50 [4]: > 50 µM (not active)

CCOc1ccc(Nc2nnc(SCc3nc(O)c4ccccc4n3)s2)cc1
IC50 [5]: 29.2 µM (not active)
IC50 [6]: > 111 µM (not active)
IC50 [7]: 27 µM (not active)

Cc1ccccc1OCC(=O)Nc1ccccc1N1CCOCC1
EC50 (Mucolipin-3): 5.08 µM (active)
EC50 (Ion channel NompC): > 29.9 µM (not active)

N#Cc1cc(Oc2ccccc2)c(-n2nnc3ccccc32)cc1C#N
IC50 [8]: > 100 µM (inactive)

COc1ccc(/C=C2/SC(=O)N(CCCCCC(=O)Nc3ccccc3C(=O)O)C2=S)cc1
IC50 [9]: 13.8 µM (active)
IC50 (Cysteine protease ATG4B): 14.5 µM (active)
IC50 (Phospholipase A2): 5.25 µM (active)
IC50 [10]: > 50 µM (active)
AC50 [11]: 3.05 µM (active)

CCn1c2ccccc2c2nnc(SCC(=O)Nc3ccc4c(c3)OCO4)nc21
IC50 (Estrogen receptor): > 50 µM (not active)

Cc1cc(C)c(NC2=NS(=O)(=O)c3ccccc32)c(C)c1
EC50 [12]: > 55.7 µM (not active)
EC50 [13]: > 55.7 µM (not active)

Cc1ccc(NC(=O)c2ccc3c(c2)CCN3S(C)(=O)=O)cc1C
AC50 [14]: 23.8 µM (active)

O=C(c1ccccc1C(F)(F)F)n1c2ccccc2c2ccccc21
EC50 (Streptococcus): > 500 µM (not active)

NS(=O)(=O)c1ccc2[nH]c3c(c2c1)CCCC3
IC50 [15]: > 100 µM (not active)

CC(Sc1ccc(Cl)cc1)C(=O)Nc1ccc(S(=O)(=O)N2CCOCC2)cc1 (centres undefined)
EC50 (Oxytocin receptor): > 29.9 µM (not active)
EC50 (Vasopressin V1a receptor): > 29.9 µM (not active)

COC(C(=O)Nc1ccc(S(=O)(=O)Nc2ccc(F)cc2)cc1)c1ccccc1 (centres undefined)
EC50 (Oxytocin receptor): > 29.9 µM (not active)
EC50 (Vasopressin V1a receptor): > 29.9 µM (not active)

Cn1cc(NC(=O)Nc2ccc(C(F)(F)F)cc2)c(C(F)(F)F)n1
EC50 [12]: > 55.7 µM (not active)
EC50 [13]: > 55.7 µM (not active)

O=C(NCc1cccs1)c1nc2c(nnn2Cc2ccccc2Cl)c(=O)[nH]1
AC50 [16]: 6.66 µM (active)
IC50 (Genome polyprotein): 51.8 µM (active)
EC50 [17]: 15.4 µM (active)
